Results on 17 molecules are retold here after ChEMBL document CHEMBL1154536, “Optimization of 4,6-bis-anilino-1H-pyrrolo[2,3-d]pyrimidine IGF-1R tyrosine kinase inhibitors towards JNK selectivity” (Bioorg Med Chem Lett, 2009).

Molecules are shown by their SMILES.

T1 sequence (P08069 31-736 limits assumed): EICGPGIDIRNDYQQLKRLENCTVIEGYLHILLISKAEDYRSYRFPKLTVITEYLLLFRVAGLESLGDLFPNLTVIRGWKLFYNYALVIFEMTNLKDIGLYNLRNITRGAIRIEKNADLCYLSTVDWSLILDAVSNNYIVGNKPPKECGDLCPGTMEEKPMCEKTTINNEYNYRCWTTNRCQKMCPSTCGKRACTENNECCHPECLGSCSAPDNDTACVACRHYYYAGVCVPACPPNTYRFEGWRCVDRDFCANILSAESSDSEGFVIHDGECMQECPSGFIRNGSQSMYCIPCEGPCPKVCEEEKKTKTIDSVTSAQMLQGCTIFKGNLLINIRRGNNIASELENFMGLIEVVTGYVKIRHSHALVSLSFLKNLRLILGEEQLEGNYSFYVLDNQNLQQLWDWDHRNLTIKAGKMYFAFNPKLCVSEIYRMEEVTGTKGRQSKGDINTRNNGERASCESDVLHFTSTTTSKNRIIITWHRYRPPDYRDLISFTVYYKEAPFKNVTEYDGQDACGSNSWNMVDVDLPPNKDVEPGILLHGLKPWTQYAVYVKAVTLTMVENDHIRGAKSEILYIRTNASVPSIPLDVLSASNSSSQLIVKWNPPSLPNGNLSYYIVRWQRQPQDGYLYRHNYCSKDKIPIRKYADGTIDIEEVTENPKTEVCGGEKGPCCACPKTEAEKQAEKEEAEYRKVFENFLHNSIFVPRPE
T1 sequence (P08069 741-1367 limits assumed): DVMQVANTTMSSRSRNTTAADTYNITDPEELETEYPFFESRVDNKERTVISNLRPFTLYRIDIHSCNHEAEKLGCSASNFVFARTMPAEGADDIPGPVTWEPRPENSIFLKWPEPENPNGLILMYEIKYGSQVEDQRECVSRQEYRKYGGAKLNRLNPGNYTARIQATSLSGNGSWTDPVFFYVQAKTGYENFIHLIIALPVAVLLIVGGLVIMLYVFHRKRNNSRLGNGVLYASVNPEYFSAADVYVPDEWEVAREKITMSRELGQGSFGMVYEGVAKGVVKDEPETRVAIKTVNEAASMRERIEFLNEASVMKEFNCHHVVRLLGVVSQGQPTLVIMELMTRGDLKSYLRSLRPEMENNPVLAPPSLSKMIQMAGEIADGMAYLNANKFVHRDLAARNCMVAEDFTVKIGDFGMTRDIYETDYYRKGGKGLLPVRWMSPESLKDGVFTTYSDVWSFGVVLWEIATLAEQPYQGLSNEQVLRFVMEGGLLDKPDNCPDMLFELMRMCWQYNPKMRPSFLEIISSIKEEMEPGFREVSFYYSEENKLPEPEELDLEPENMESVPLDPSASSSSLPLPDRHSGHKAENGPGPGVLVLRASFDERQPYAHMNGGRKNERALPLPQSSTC
Chain of Mitogen-activated protein kinase 8 (P45983 whole entry): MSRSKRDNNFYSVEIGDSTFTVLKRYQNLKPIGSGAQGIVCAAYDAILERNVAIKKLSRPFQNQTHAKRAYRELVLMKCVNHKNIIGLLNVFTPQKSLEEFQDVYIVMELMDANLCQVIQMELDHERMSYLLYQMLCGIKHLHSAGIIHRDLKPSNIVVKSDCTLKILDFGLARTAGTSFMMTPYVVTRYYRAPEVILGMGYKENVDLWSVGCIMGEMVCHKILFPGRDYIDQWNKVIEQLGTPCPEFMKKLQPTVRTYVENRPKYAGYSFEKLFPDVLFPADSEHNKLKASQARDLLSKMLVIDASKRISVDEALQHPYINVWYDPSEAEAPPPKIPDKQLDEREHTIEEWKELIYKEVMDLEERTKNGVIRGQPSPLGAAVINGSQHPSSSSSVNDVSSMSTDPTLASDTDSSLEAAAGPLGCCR

For the first series, the target named is ALK tyrosine kinase receptor (Homo sapiens, UniProt Q9UM73). As to the kind of experiment: Inhibition of ALK.
Chain of ALK tyrosine kinase receptor (Q9UM73 whole entry): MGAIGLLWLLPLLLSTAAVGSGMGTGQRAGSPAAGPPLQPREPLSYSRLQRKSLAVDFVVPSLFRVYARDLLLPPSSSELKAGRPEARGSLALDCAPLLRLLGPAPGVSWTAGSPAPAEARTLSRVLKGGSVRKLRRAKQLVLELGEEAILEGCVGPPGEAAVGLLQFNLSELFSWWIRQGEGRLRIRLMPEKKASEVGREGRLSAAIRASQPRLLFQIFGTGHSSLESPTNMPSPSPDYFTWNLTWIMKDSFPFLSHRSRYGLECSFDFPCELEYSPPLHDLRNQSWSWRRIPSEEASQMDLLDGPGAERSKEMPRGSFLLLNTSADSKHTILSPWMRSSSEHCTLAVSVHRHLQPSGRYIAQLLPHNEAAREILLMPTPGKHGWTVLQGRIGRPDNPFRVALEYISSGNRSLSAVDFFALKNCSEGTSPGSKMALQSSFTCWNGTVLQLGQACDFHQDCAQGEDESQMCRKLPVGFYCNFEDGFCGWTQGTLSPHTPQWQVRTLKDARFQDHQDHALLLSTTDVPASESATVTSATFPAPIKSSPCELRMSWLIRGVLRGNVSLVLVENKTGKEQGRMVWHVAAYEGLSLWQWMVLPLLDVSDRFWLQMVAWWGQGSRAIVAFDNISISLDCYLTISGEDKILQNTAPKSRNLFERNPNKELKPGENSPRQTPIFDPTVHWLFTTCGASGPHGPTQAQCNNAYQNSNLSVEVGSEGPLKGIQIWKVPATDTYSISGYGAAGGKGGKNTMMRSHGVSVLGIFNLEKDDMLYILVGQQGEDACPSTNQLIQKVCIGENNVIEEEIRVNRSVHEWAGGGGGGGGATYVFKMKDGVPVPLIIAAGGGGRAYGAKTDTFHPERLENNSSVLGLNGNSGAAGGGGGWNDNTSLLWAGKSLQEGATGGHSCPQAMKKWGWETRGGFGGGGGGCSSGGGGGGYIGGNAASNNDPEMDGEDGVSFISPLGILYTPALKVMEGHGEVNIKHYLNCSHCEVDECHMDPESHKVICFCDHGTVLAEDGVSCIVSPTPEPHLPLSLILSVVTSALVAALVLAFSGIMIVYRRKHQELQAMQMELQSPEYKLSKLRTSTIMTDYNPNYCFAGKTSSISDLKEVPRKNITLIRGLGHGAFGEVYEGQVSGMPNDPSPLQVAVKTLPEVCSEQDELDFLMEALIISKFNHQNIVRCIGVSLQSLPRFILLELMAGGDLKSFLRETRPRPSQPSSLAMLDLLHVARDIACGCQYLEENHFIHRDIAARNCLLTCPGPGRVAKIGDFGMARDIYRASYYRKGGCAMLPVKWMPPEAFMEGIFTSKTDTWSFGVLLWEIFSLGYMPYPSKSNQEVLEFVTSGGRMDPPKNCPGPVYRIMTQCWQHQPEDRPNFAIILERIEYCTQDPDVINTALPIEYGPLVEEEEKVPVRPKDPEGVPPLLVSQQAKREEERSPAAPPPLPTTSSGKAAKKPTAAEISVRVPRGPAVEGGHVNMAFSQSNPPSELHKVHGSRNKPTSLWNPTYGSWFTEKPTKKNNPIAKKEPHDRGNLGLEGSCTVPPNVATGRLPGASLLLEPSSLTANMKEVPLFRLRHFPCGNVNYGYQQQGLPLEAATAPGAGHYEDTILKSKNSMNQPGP
Details: not given
Consider `COc1cc(N2CCN(C(C)C)CC2)ccc1Nc1nc(Nc2cccc(F)c2C(N)=O)c2cc[nH]c2n1`, for which the IC50 (commonly the concentration at which inhibition is half-maximal) is 0.0005 µM.

The target of another series is Insulin receptor (Homo sapiens, UniProt P06213). As to the kind of experiment: Inhibition of IR.
Chain of Insulin receptor (P06213 28-758 limits assumed): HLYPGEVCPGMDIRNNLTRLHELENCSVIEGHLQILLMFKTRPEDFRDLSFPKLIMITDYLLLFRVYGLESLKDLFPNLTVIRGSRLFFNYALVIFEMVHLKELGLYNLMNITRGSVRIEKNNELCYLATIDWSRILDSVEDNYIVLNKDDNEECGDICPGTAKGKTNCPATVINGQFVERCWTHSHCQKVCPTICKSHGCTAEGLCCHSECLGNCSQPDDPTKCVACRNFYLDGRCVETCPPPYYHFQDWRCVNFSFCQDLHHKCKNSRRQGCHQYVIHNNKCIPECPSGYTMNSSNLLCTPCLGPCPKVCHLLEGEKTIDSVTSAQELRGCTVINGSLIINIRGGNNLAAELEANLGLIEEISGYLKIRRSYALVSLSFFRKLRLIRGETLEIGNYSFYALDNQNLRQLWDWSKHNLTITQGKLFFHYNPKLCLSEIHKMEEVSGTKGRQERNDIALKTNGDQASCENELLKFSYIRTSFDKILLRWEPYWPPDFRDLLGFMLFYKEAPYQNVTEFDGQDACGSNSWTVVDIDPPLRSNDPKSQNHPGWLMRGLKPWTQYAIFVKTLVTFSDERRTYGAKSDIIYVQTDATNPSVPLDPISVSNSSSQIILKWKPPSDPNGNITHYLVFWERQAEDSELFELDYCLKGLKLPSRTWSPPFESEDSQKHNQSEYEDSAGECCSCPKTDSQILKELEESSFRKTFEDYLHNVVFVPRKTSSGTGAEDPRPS
Chain of Insulin receptor (P06213 763-1382 limits assumed): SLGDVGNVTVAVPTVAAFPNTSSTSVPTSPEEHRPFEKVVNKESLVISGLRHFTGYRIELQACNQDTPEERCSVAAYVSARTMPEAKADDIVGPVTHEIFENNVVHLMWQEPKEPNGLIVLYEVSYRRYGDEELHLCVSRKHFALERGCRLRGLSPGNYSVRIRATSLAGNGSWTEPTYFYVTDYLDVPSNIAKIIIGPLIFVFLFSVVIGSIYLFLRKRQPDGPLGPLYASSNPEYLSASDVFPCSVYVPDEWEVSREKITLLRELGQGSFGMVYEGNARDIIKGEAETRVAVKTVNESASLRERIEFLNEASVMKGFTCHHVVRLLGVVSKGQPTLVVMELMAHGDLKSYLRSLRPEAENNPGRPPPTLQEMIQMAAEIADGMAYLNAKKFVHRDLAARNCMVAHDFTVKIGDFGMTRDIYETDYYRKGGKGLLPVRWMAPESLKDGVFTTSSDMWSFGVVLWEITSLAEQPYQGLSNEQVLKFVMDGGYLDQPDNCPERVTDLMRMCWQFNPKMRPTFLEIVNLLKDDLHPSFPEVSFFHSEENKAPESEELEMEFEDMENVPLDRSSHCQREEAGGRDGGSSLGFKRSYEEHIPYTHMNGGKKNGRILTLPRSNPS
Details: not given
`COc1cc(N2CCN(C(C)C)CC2)ccc1Nc1nc(Nc2cccc(F)c2C(N)=O)c2cc[nH]c2n1` showed an IC50 of 0.0016 µM.

Another series concerns the target T1, Insulin-like growth factor 1 receptor (Homo sapiens, UniProt P08069). Briefly: Inhibition of IGF-1R.
Details: not given
In the case of `CCCN1CCC(Oc2cc(Nc3nc(Nc4cccc(F)c4C(N)=O)c4cc[nH]c4n3)c(OC)cc2Cl)CC1` [GSK-1713088A], the IC50 stood at 0.025 µM.
The same measure, in the same setting: with `COc1cc2c(cc1Nc1nc(Nc3cccc(F)c3C(N)=O)c3cc[nH]c3n1)N(C(=O)CN)CC2` the figure was 0.004 µM.
Still for that read-out and setting: with `COc1cc(C)c(CCCN(C)C)cc1Nc1nc(Nc2cccc(F)c2C(N)=O)c2cc[nH]c2n1` the figure was 0.013 µM; with `COc1cc(C)c(NC(=O)CN(C)C)cc1Nc1nc(Nc2cccc(F)c2C(N)=O)c2cc[nH]c2n1` [GSK-2213727A], 0.0005 µM.
Same read-out and setting: with `COc1cc2c(cc1Nc1nc(Nc3cccc(F)c3C(N)=O)c3cc[nH]c3n1)N(C(=O)CN1CCCCC1)CCC2` the figure was 0.001 µM; with `COc1cc2c(cc1Nc1nc(Nc3cccc(F)c3C(N)=O)c3cc[nH]c3n1)N(C(=O)CCN(C)C)CCC2`, 0.01 µM.
`COc1ccc(N(C)C(=O)CN(C)C)cc1Nc1nc(Nc2cccc(F)c2C(N)=O)c2cc[nH]c2n1` registered an IC50 of 0.05 µM. Against the preceding molecule, the IC50 is about 5-fold higher.
The same measure, in the same setting: the result for `COc1cc2c(cc1Nc1nc(Nc3cccc(F)c3C(N)=O)c3cc[nH]c3n1)N(C(=O)CN1CCCC1)CC2` reads 0.001 µM.
`COc1cc2c(cc1Nc1nc(Nc3cccc(F)c3C(N)=O)c3cc[nH]c3n1)N(C(=O)CCN1CCOCC1)CC2` registered an IC50 of 0.006 µM.
On the same count and under the same terms, with `COc1cc2c(cc1Nc1nc(Nc3cccc(F)c3C(N)=O)c3cc[nH]c3n1)N(C(=O)CN1CCC1)CC2` the figure was 0.001 µM; with `COc1ccc(OCCCN(C)C)cc1Nc1nc(Nc2cccc(F)c2C(N)=O)c2cc[nH]c2n1`, 0.008 µM.
For the molecule `COc1cc2c(cc1Nc1nc(Nc3cccc(F)c3C(N)=O)c3cc[nH]c3n1)N(C(=O)CCN(C)C)CC2`, it took 0.008 µM to reach half-maximal inhibition (IC50).
In the case of `COc1cc2c(cc1Nc1nc(Nc3cccc(F)c3C(N)=O)c3cc[nH]c3n1)N(C(=O)CN(C)C)CCC2`, the IC50 turned out to be 0.001 µM.
Molecule `COc1cc2c(cc1Nc1nc(Nc3cccc(F)c3C(N)=O)c3cc[nH]c3n1)N(C(C)=O)CCC2` gave an IC50 of 0.025 µM. This IC50 lies about 25-fold higher than the previous one.
Same read-out and setting: the result for `COc1cc2c(cc1Nc1nc(Nc3cccc(F)c3C(N)=O)c3cc[nH]c3n1)N(C(C)=O)CC2` reads 0.006 µM; that for `CCCN1CCC(Oc2ccc(OC)c(Nc3nc(Nc4cccc(F)c4C(N)=O)c4cc[nH]c4n3)c2)CC1`, 0.006 µM.

Another series has as its target Mitogen-activated protein kinase 8 (Homo sapiens, UniProt P45983). Briefly: Inhibition of His-tagged JNK1.
Details: not given
On to `CCCN1CCC(Oc2cc(Nc3nc(Nc4cccc(F)c4C(N)=O)c4cc[nH]c4n3)c(OC)cc2Cl)CC1` [GSK-1713088A], for which the IC50 came out at 3.98 µM.
On the same count and under the same terms, with `COc1cc2c(cc1Nc1nc(Nc3cccc(F)c3C(N)=O)c3cc[nH]c3n1)N(C(=O)CN)CC2` the figure was 1 µM.
The same measure, in the same setting: the result for `COc1cc(C)c(CCCN(C)C)cc1Nc1nc(Nc2cccc(F)c2C(N)=O)c2cc[nH]c2n1` reads 0.501 µM; that for `COc1cc(C)c(NC(=O)CN(C)C)cc1Nc1nc(Nc2cccc(F)c2C(N)=O)c2cc[nH]c2n1` [GSK-2213727A], 2 µM.
On the same count and under the same terms, with `COc1cc2c(cc1Nc1nc(Nc3cccc(F)c3C(N)=O)c3cc[nH]c3n1)N(C(=O)CN1CCCCC1)CCC2` the figure was 2.51 µM; with `COc1cc2c(cc1Nc1nc(Nc3cccc(F)c3C(N)=O)c3cc[nH]c3n1)N(C(=O)CCN(C)C)CCC2`, 7.94 µM.
With `COc1ccc(N(C)C(=O)CN(C)C)cc1Nc1nc(Nc2cccc(F)c2C(N)=O)c2cc[nH]c2n1`, the IC50 came to 10 µM.
For the molecule `COc1cc2c(cc1Nc1nc(Nc3cccc(F)c3C(N)=O)c3cc[nH]c3n1)N(C(=O)CN1CCCC1)CC2`, it took 1.26 µM to reach half-maximal inhibition (IC50). This IC50 lies about 7.9-fold lower than the previous one.
Same read-out and setting: with `COc1cc2c(cc1Nc1nc(Nc3cccc(F)c3C(N)=O)c3cc[nH]c3n1)N(C(=O)CCN1CCOCC1)CC2` the figure was 0.251 µM; with `COc1cc2c(cc1Nc1nc(Nc3cccc(F)c3C(N)=O)c3cc[nH]c3n1)N(C(=O)CN1CCC1)CC2`, 2 µM; with `COc1ccc(OCCCN(C)C)cc1Nc1nc(Nc2cccc(F)c2C(N)=O)c2cc[nH]c2n1`, 0.631 µM.
`COc1cc2c(cc1Nc1nc(Nc3cccc(F)c3C(N)=O)c3cc[nH]c3n1)N(C(=O)CCN(C)C)CC2` registered an IC50 of 0.794 µM. The IC50 values of the last two molecules are within 1.5-fold of each other.
`COc1cc2c(cc1Nc1nc(Nc3cccc(F)c3C(N)=O)c3cc[nH]c3n1)N(C(=O)CN(C)C)CCC2`: the IC50 was determined as 6.31 µM.
The same measure, in the same setting: the result for `COc1cc2c(cc1Nc1nc(Nc3cccc(F)c3C(N)=O)c3cc[nH]c3n1)N(C(C)=O)CCC2` reads 7.94 µM.
Still for that read-out and setting: with `COc1cc(N2CCN(C(C)C)CC2)ccc1Nc1nc(Nc2cccc(F)c2C(N)=O)c2cc[nH]c2n1` the figure was 0.013 µM; with `COc1cc2c(cc1Nc1nc(Nc3cccc(F)c3C(N)=O)c3cc[nH]c3n1)N(C(C)=O)CC2`, 0.126 µM.
`CCCN1CCC(Oc2ccc(OC)c(Nc3nc(Nc4cccc(F)c4C(N)=O)c4cc[nH]c4n3)c2)CC1` had an IC50 of 1.26 µM. This IC50 lies about 10-fold higher than the previous one.

The target of the next series is Mitogen-activated protein kinase 10 (Homo sapiens, UniProt P53779). As to the kind of experiment: Inhibition of human His-tagged JNK3.
Details: not given
`COc1cc(N2CCN(C(C)C)CC2)ccc1Nc1nc(Nc2cccc(F)c2C(N)=O)c2cc[nH]c2n1` registered an IC50 of 0.1 µM.

The target of the next series is T1, Insulin-like growth factor 1 receptor. As to the kind of experiment: Inhibition of phospho IGFR1 by cellular assay.
Details: not given
In turn, `CCCN1CCC(Oc2cc(Nc3nc(Nc4cccc(F)c4C(N)=O)c4cc[nH]c4n3)c(OC)cc2Cl)CC1` [GSK-1713088A] gave an IC50 of 5.37 µM. That is a single-digit micromolar value.
Regarding `COc1cc2c(cc1Nc1nc(Nc3cccc(F)c3C(N)=O)c3cc[nH]c3n1)N(C(=O)CN)CC2`, the IC50 came to 0.765 µM.
Same read-out and setting: with `COc1cc(C)c(CCCN(C)C)cc1Nc1nc(Nc2cccc(F)c2C(N)=O)c2cc[nH]c2n1` the figure was 0.84 µM.
Same read-out and setting: with `COc1cc(C)c(NC(=O)CN(C)C)cc1Nc1nc(Nc2cccc(F)c2C(N)=O)c2cc[nH]c2n1` [GSK-2213727A] the figure was 0.038 µM; with `COc1cc2c(cc1Nc1nc(Nc3cccc(F)c3C(N)=O)c3cc[nH]c3n1)N(C(=O)CN1CCCCC1)CCC2`, 0.011 µM; with `COc1cc2c(cc1Nc1nc(Nc3cccc(F)c3C(N)=O)c3cc[nH]c3n1)N(C(=O)CCN(C)C)CCC2`, 0.209 µM.
The same measure, in the same setting: with `COc1ccc(N(C)C(=O)CN(C)C)cc1Nc1nc(Nc2cccc(F)c2C(N)=O)c2cc[nH]c2n1` the figure was 0.377 µM.
`COc1cc2c(cc1Nc1nc(Nc3cccc(F)c3C(N)=O)c3cc[nH]c3n1)N(C(=O)CN1CCCC1)CC2` registered an IC50 of 0.024 µM.
Still for that read-out and setting: the result for `COc1cc2c(cc1Nc1nc(Nc3cccc(F)c3C(N)=O)c3cc[nH]c3n1)N(C(=O)CCN1CCOCC1)CC2` reads 0.298 µM.
Same read-out and setting: the result for `COc1cc2c(cc1Nc1nc(Nc3cccc(F)c3C(N)=O)c3cc[nH]c3n1)N(C(=O)CN1CCC1)CC2` reads 0.128 µM; that for `COc1ccc(OCCCN(C)C)cc1Nc1nc(Nc2cccc(F)c2C(N)=O)c2cc[nH]c2n1`, 0.081 µM.
The same measure, in the same setting: with `COc1cc2c(cc1Nc1nc(Nc3cccc(F)c3C(N)=O)c3cc[nH]c3n1)N(C(=O)CCN(C)C)CC2` the figure was 0.191 µM.
As for `COc1cc2c(cc1Nc1nc(Nc3cccc(F)c3C(N)=O)c3cc[nH]c3n1)N(C(=O)CN(C)C)CCC2`, the IC50 worked out at 0.016 µM.
`COc1cc2c(cc1Nc1nc(Nc3cccc(F)c3C(N)=O)c3cc[nH]c3n1)N(C(C)=O)CCC2` registered an IC50 of 1.98 µM.
Same read-out and setting: the result for `COc1cc2c(cc1Nc1nc(Nc3cccc(F)c3C(N)=O)c3cc[nH]c3n1)N(C(C)=O)CC2` reads 0.278 µM.
On the same count and under the same terms, with `CCCN1CCC(Oc2ccc(OC)c(Nc3nc(Nc4cccc(F)c4C(N)=O)c4cc[nH]c4n3)c2)CC1` the figure was 0.929 µM.

Test system in another series: not listed separately
Briefly: Clearance in rat at 2.5 mg/kg, iv and […] mg/kg, po. The format is ADME, organism-based. To be noted: in vivo.
Molecule `COc1ccc(OCCCN(C)C)cc1Nc1nc(Nc2cccc(F)c2C(N)=O)c2cc[nH]c2n1` yielded a clearance of 112 mL/min/kg.

The next series deals with Rattus norvegicus. As to the kind of experiment: Dose normalized AUC (0 to 8 hrs) in rat at 13 mg/kg, po. The format is ADME, organism-based. Details: time < 8 hr, dose 13 mg/kg, route oral. As to conditions: in vivo.
In turn, `COc1ccc(OCCCN(C)C)cc1Nc1nc(Nc2cccc(F)c2C(N)=O)c2cc[nH]c2n1` showed an AUC of 85 ng·h/mL/mg/kg.

Test system in a further series: not listed separately
As to the kind of experiment: Cmax in rat at 13 mg/kg, po. As to conditions: in vivo. Details: dose 13 mg/kg, route oral. The format is ADME, organism-based.
For the molecule `COc1ccc(OCCCN(C)C)cc1Nc1nc(Nc2cccc(F)c2C(N)=O)c2cc[nH]c2n1`, the concentration peaked (Cmax) at 192 ng/mL.

Test system in a further series: not listed separately
Briefly: Oral bioavailability in rat at 13 mg/kg, po. The format is ADME, organism-based. As to conditions: in vivo.
For `COc1ccc(OCCCN(C)C)cc1Nc1nc(Nc2cccc(F)c2C(N)=O)c2cc[nH]c2n1`, the bioavailability (as a rule, the share of a dose that reaches the circulation, judged against a reference dose that is usually intravenous) is 60%.
